We go through 3 molecules from US12472185B2, “Methods for killing antibiotic tolerant bacteria” (THE PENN STATE RESEARCH FOUNDATION, priority 2020, dated 2025).

≈ marks a conversion by molar mass, not a printed value. Where “and” joins values, the source holds several entries; their conditions need not be identical. Equal entries are not always repeated. Where two headings read alike, the source gives them in different places.

Usually MIC stands for the lowest concentration found to suppress growth.

Experiment [1] concerns S. aureus cells. The experiment is described as follows: Survival of cells (drop assay). In kind it is cell-based, Staphylococcus aureus. As to conditions: 200 μM. The protocol: (§1) FIG. 2. NPIMA eradicates Escherichia coli, Pseudomonas aeruginosa, and Staphylococcus aureus exponential cells. Survival after 6 hr for (a) E. coli BW25113 with NPIMA and 5-iodoindole at 100 μM, (b) P. aeruginosa PA14 with NPIMA and 5-iodoindole at 100 μM, and (c) S. aureus with NPIMA and 5-iodoindole at 200 μM. Asterisk indicates no viable cells detected. NPIMA, 5-nitro-3-phenyl-1H-indol-2-yl-methylamine hydrochloride.
(§2) For bacterial viability, cells were washed twice with 0.85% NaCl, resuspended in 1×PBS, and cell counts were determined via the drop assay (Donegan, Matyac, Seidler, & Porteous, 1991). For human cell viability, pre-cultured human cancer HT-29 cells were dispensed in 98 μl in 96-well plates with approximately 5,000 cells/well. NPIMA was added (2 μl) to produce concentrations of 5, 10, 100, and 200 μM. For controls, Triton X-100 (positive control) and DMSO (negative solvent control), were used, and the medium was used for background. Plates were incubated in a humidified incubator (37° C., 5% CO2) for 24 hr. Cell viability was determined via a cell counting kit (CCK-8 Kit, ab228554; Abcam), and cytotoxicity was determined via the lactate dehydrogenase (LDH) assay (LDH Assay Kit, MK401; Takara).

Experiment [2] has as its system P. aeruginosa PA14 exponential cells. The experiment is described as follows: Survival of exponentially-growing cells (drop assay). In kind it is cell-based, Pseudomonas aeruginosa. As to conditions: 100 μM. The protocol:
as §1, §2

Experiment [3] concerns E. coli persister cells. As to conditions: 1 mM; Lee et al., 2016; cited from earlier work.
In experiment [4] the test system is E. coli BW25113 persister cells. As to the kind of experiment: Survival of persister cells (rifampicin/ampicillin generated). In kind it is cell-based, Escherichia coli. As to conditions: 100 μM, 6 hr. The procedure: FIG. 3. NPIMA kills Escherichia coli, Pseudomonas aeruginosa, persister cells. Survival of (a) E. coli BW25113 and (b) P. aeruginosa PA14 after treatment with NPIMA (100 μM), 5-iodoindole (5-II, 100 μM), and DMSO for 6 hr. Asterisk indicates no viable cells detected. DMSO, dimethyl sulfoxide; NPIMA, 5-nitro-3-phenyl-1H-indol-2-yl-methylamine hydrochloride.
E. coli persister cells were prepared following our previous method (Kim, Yamasaki, et al., 2018; Kwan, Valenta, Benedik, & Wood, 2013). Exponentially-growing cells (turbidity of 0.8 at 600 nm) were treated with rifampicin (100 μg/ml for 30 min) to stop transcription, washed, and any remaining nonpersister cells were lysed by ampicillin in LB (100 μg/ml for 3 hr). Cells were harvested by centrifugation (17,000 g for 1 min) and washed with 1× phosphate-buffered saline buffer (PBS, 8 g NaCl, 0.2 g KCl, 1.15 g Na2HPO4, and 0.2 g KH2PO4 per 1,000 ml) twice to remove all possible carbon sources, then resuspended with 1×PBS. Natural E. coli persister cells were generated by treating stationary-phase cells (turbidity of 6 at 600 nm) with ampicillin (100 μg/ml) for 3 hr. P. aeruginosa PA14 persister cells were prepared by incubating to the stationary phase, diluting sixfold, and treating with carbonyl cyanide m-chlorophenylhydrazone (CCCP, 50 mg/ml stock solution in dimethly sulfoxide [DMSO]) to stop adenosine triphosphate (ATP) production (200 μg/ml for 3 hr), washed twice with 0.85% NaCl (5,000 g for 10 min), and any nonpersister cells were killed by ciprofloxacin (5 μg/ml) in LB for 3 hr. Following the antibiotic treatment, bacteria were washed twice with 0.85% NaCl (5,000 g for 10 min).
For bacterial viability, cells were washed twice with 0.85% NaCl, resuspended in 1×PBS, and cell counts were determined via the drop assay (Donegan, Matyac, Seidler, & Porteous, 1991). […] Cell viability was determined via a cell counting kit (CCK-8 Kit, ab228554; Abcam), and cytotoxicity was determined via the lactate dehydrogenase (LDH) assay (LDH Assay Kit, MK401; Takara).

Experiment [5] relates to E. coli BW25113 exponential cells. The experiment is described as follows: Survival of exponentially-growing cells (drop assay). It counts as cell-based, Escherichia coli. As to conditions: 100 μM, 6 hr. The procedure:
as §1
FIG. 8. NPIMA structure function relationships. Exponential cells of Escherichia coli BW25113 were treated with (a) 2-(aminomethyl) indole, and (b) 2-methyl-5-nitro-3-phenyl-1H-indole for 6 hr. NPIMA, 5-nitro-3-phenyl-1Hindol-2-yl-methylamine hydrochloride.
as §2

Experiment [6] concerns E. coli K-12 BW25113. As to the kind of experiment: Minimum inhibitory concentration (MIC). It counts as cell-based. As to conditions: Escherichia coli, LB, 24 hr. The procedure:
(§3) The bacteria used in this study are E. coli K-12 BW25113 (Baba et al., 2006), S. aureus ATCC29213, and P. aeruginosa PA14 (Liberati et al., 2006). Lysogeny broth (LB; Bertani, 1951) was used at 37° C. for culturing the bacteria. 2-(Aminomethyl)-indole was obtained from Sigma-Aldrich (catalog number 563838), and 2-methyl-5-nitro-3-phenyl-1H-indole was obtained from ChemBridge (San Diego, CA).
(§4) To determine the MICs of NPIMA and 5-iodoindole for E. coli K-12, S. aureus, and P. aeruginosa PA14, cells were inoculated into LB at varying concentrations and grown for 24 hr. The MIC was determined as the lowest concentration that prevented an increase in growth as evidenced by a lack of change of turbidity.

In experiment [7] the test system is S. aureus ATCC29213. As to the kind of experiment: Minimum inhibitory concentration (MIC). In kind it is cell-based. As to conditions: Staphylococcus aureus, LB, 24 hr. The procedure:
as §3, §4

The subject of experiment [8] is P. aeruginosa PA14. The experiment is described as follows: Minimum inhibitory concentration (MIC). In kind it is cell-based. As to conditions: Pseudomonas aeruginosa, LB, 24 hr. The procedure: as §3, §4
The subject of experiment [9] is E. coli BW25113 persister cells. The experiment is described as follows: Single-cell persister resuscitation. In kind it is cell-based, Escherichia coli. As to conditions: 100 μM, M9 alanine (5×) agarose gel pads, 6 h. From the text:
FIG. 12. RluD increases persister resuscitation by increasing ribosomes for resuscitation. (A) Single-cell persister resuscitation as determined using light microscopy (Zeiss Axio Scope.A1). The fold-change in resuscitation is relative to BW25113 with DMSO for BW25113 with BPOET, relative to BW25113 for the ΔrluD mutant, relative to BW25113/pCA24N for the strain producing RluD from pCA24N plasmid in BW25113, and relative to MG1655 for ΔrybB. M9 glucose (0.4%) agarose gel pads were used for all the strains except BW25113 with BPOET where M9 alanine (5×) agarose gel pads including 100 μM of BPOET or DMSO were used. The results are the combined observations from two independent experiments after 6 h for the BW25113 with BPOET, after 4 h for BW25113 and its deletion mutants, and after 6 h for cells harboring pCA24N and its derivatives as well as for MG1655 and MG1655 ΔrybB. Error bars indicate standard deviations. (B) Active 70S ribosomes in single persister cells for MG1655-ASV/pCA24N-rluD (“RluD”) VS. MG1655-ASV/pCA24N (“Empty”). Cells are shown on agarose gel pads at time 0 for resuscitation; i.e., after the formation of persister cells. Representative results from three independent cultures are shown.
Single-cell persister resuscitation. As described previously (19), 5 μL of cell populations consisting of 100% persister cells were added to 1.5% agarose gel pads containing either M9 medium with glucose (0.4 wt %) or alanine (5×) as a carbon source (24), and resuscitation was monitored at 37° C. via a light microscope (Zeiss Axio Scope.A1, bl_ph channel at 1000 ms exposure).
Table 5. Single persister cell resuscitation. Single-cell persister resuscitation as determined using light microscopy (Zeiss Axio Scope.A1) using agarose gel pads. The fold-change in resuscitation is relative to BW25113 with DMSO for BW25113 with BPOET, relative to BW25113 for the ΔrluD, relative to BW25113/pCA24N for the strain producing RluD from pCA24N in BW25113, and relative to MG1655 for ΔrybB. […]

Experiment [10] deals with E. coli persister cells. As to the kind of experiment: Re-test of resuscitation hits in minimal alanine medium, 96-well plates. In kind it is cell-based, Escherichia coli. As to conditions: 100 μM. The procedure:
ChemBridge screen to identify resuscitation compounds. To identify compounds that resuscitate E. coli persister cells, the DIVERset Library from ChemBridge (San Diego, CA) containing 10,000 druglike compounds with high pharmacophore diversity was evaluated by adding 4 μL of each compound (final concentration 100 μM, dissolved in DMSO) to 186 μL of LB in 96 well plates and then adding 10 μL of persister cells. The negative control was 2 vol % DMSO. Resuscitation was calculated as the change in turbidity at 600 nm. The compounds that were identified initially were re-tested in M9 minimal medium with 5× alanine (24).

Experiment [11] concerns E. coli K-12 BW25113. As to conditions: from Chowdhury, Wood, et al., 2016; cited from earlier work.
In experiment [12] the test system is P. aeruginosa PA14. As to conditions: from Chowdhury, Wood, et al., 2016; cited from earlier work.
Experiment [13] has as its system S. aureus ATCC29213. As to conditions: from Chowdhury, Wood, et al., 2016; cited from earlier work.
Experiment [14] has as its system P. aeruginosa PA14 exponentially-growing cells. The experiment is described as follows: Killing at one MIC in PBS, NPIMA compared with cisplatin. In kind it is cell-based, Pseudomonas aeruginosa.
Description: FIG. 7. NPIMA compared width cisplatin for killing Pseudomonas aeruginosa, Escherichia coli, and Staphylococcus aureus. Survival of exponentially-growing cells of P. aeruginosa PA14 (a), E. coli (b), and S. aureus (c) treated with one MIC of NPIMA (♦) and cisplatin (●) for 3 hr in PBS. DMSO (▴) and NaClO4 (*) were used as a negative controls. MIC, minimum inhibitory concentration; NPIMA, 5-nitro-3-phenyl-1H-indol-2-yl-methylamine hydrochloride.
as §2

For `Ic1ccc2[nH]ccc2c1` [5-iodoindole, reference compound], the “killing of S. aureus” value in experiment [1] is “ineffective”. Moreover, in experiment [2], the “killing of P. aeruginosa” value was “ineffective”. Moreover, the persisters killed in [3] is listed as 99.993%. Also, the “killing of E. coli persister cells” value in experiment [4] is recorded as “much less effective”. In experiment [5], the “killing of exponential E. coli cells” value is on record as “much less effective”. The minimum inhibitory concentration (MIC) in [6], in experiment [7] and in [8] was 2000 µM (≈ 486 µg/mL) each time.
With `CCn1c(SCC(=O)c2ccc(Br)cc2)nc2sc3c(c2c1=O)CCCC3` [BPOET, 2-{[2-(4-bromophenyl)-2-oxoethyl]thio}-3-ethyl-5,6,7,8-tetrahydro[1]benzothieno[2,3-d]pyrimidin-4(3H)-one], in [9], the “% waking” value was 20 ± 13%; the “Fold-change in resuscitation relative to BW25113 with DMSO” value is 4 fold and 4 ± 3 fold; the Waking cells was 38 ± 18. The “increase in persister cell waking based on turbidity” value in experiment [10] is 44 fold.
Take `N.N.[Cl][Pt][Cl]` [cisplatin]: the MIC in [11] is recorded as 0.3 mM; in [12] it was 0.15 mM; in [13] it was 1 mM. Moreover, the “time to eradicate P. aeruginosa cells” value in experiment [14] was 1 h.
